Assays:
Experiment in all cases: relative viability (nuclei count vs DMSO), 5 days (fraction); higher = more cells survive
Pictilisib + Foretinib = compound: CS(=O)(=O)N1CCN(Cc2cc3nc(-c4cccc5[nH]ncc45)nc(N4CCOCC4)c3s2)CC1 [Pictilisib] + COc1cc2c(Oc3ccc(NC(=O)C4(C(=O)Nc5ccc(F)cc5)CC4)cc3F)ccnc2cc1OCCCN1CCOCC1 [Foretinib] (partner 0.25 µM)
Summary of the method: (§1)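 Nuclei were stained with Hoechst during a one-step fixation (final 0.05% Triton X-100, 1% formaldehyde, 1 ug/ml Hoechst) carried out 5 days after dosing, then counted on 4× images. The cells, lung cancer lines in 1536-well plates, had been dosed by pin tool the day after seeding with one drug alone or a fixed anchor-drug dose plus five library-drug doses (not always all listed) in √10 steps. Relative viability is the nuclei count in treated wells divided by that in vehicle wells, and each value is the median of duplicate plates.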

MK-2206 + OSI-027 = compound: NC1(c2ccc(-c3nc4ccn5c(=O)[nH]nc5c4cc3-c3ccccc3)cc2)CCC1 [MK-2206] + COc1cccc2cc(-c3nc([C@H]4CC[C@H](C(=O)O)CC4)n4ncnc(N)c34)[nH]c12 [OSI-027] (partner 0.5 µM)
Summary of the method: as §1

MK-2206 + Pictilisib = compound: NC1(c2ccc(-c3nc4ccn5c(=O)[nH]nc5c4cc3-c3ccccc3)cc2)CCC1 [MK-2206] + CS(=O)(=O)N1CCN(Cc2cc3nc(-c4cccc5[nH]ncc45)nc(N4CCOCC4)c3s2)CC1 [Pictilisib] (partner 1 µM)
Summary of the method: as §1

MK-2206 + Crizotinib = compound: NC1(c2ccc(-c3nc4ccn5c(=O)[nH]nc5c4cc3-c3ccccc3)cc2)CCC1 [MK-2206] + C[C@@H](Oc1cc(-c2cnn(C3CCNCC3)c2)cnc1N)c1c(Cl)ccc(F)c1Cl [Crizotinib] (partner 1 µM)
Summary of the method: as §1

MK-2206 + Decitabine = compound: NC1(c2ccc(-c3nc4ccn5c(=O)[nH]nc5c4cc3-c3ccccc3)cc2)CCC1 [MK-2206] + Nc1ncn([C@H]2C[C@H](O)[C@@H](CO)O2)c(=O)n1 [Decitabine] (partner 2 µM)
Summary of the method: as §1

Cell Line	relative viability (Pictilisib + Foretinib; first compound 0.02 µM)	relative viability (Pictilisib + Foretinib; first compound 0.06325 µM)	relative viability (Pictilisib + Foretinib; first compound 0.6325 µM)	relative viability (Pictilisib + Foretinib; first compound 2 µM)	relative viability (MK-2206 + OSI-027; first compound 0.01 µM)	relative viability (MK-2206 + OSI-027; first compound 0.03162 µM)	relative viability (MK-2206 + OSI-027; first compound 0.3162 µM)	relative viability (MK-2206 + OSI-027; first compound 1 µM)	relative viability (MK-2206 + Pictilisib; first compound 0.01 µM)	relative viability (MK-2206 + Pictilisib; first compound 0.03162 µM)	relative viability (MK-2206 + Pictilisib; first compound 0.3162 µM)	relative viability (MK-2206 + Pictilisib; first compound 1 µM)	relative viability (MK-2206 + Crizotinib; first compound 0.01 µM)	relative viability (MK-2206 + Crizotinib; first compound 0.03162 µM)	relative viability (MK-2206 + Crizotinib; first compound 0.3162 µM)	relative viability (MK-2206 + Crizotinib; first compound 1 µM)	relative viability (MK-2206 + Decitabine; first compound 0.01 µM)	relative viability (MK-2206 + Decitabine; first compound 0.03162 µM)	relative viability (MK-2206 + Decitabine; first compound 0.3162 µM)	relative viability (MK-2206 + Decitabine; first compound 1 µM)
LCLC-97TM1	0.991	0.972	0.714	0.239	0.698	0.498	0.249	0.361	0.231	0.259	0.131	0.164	0.34	0.329	0.303	0.284	0.242	0.259	0.26	0.206
COR-L23	1.01	1.07	0.979	0.934	0.793	0.712	0.689	0.611	0.816	0.834	0.741	0.686	0.69	0.691	0.796	0.693	0.411	0.417	0.421	0.388
EMC-BAC-2	0.946	0.922	0.813	0.664	0.415	0.364	0.287	0.313	0.54	0.574	0.515	0.441	0.714	0.729	0.781	0.745	0.98	0.956	0.939	0.829
NCI-H1944	0.866	0.737	0.627	0.382	0.478	0.447	0.361	0.326	0.361	0.346	0.361	0.34	1.16	1.16	1.02	1.07	0.414	0.449	0.508	0.446
A-427	1.15	0.929	1	0.604	0.529	0.47	0.439	0.372	0.766	0.676	0.732	0.717	0.896	0.824	0.742	0.893	0.6	0.603	0.562	0.567
NCI-H520	0.695	0.694	0.4	0.244	0.243	0.233	0.17	0.238	0.275	0.228	0.276	0.223	0.833	0.741	0.42	0.421	0.489	0.527	0.264	0.212
NCI-H650	0.984	1.09	1	0.877	0.476	0.509	0.417	0.415	0.804	0.901	0.87	0.81	0.725	0.72	0.563	0.805	0.344	0.306	0.347	0.284
COR-L 105	1.08	1.09	0.996	0.49	0.497	0.713	0.531	0.556	0.381	0.414	0.408	0.425	0.789	0.798	0.782	0.598	0.656	0.568	0.624	0.779
NCI-H1755	0.901	0.883	0.778	0.58	0.76	0.723	0.509	0.6	0.47	0.48	0.36	0.4	0.875	0.836	0.798	0.727	0.724	0.71	0.726	0.638
NCI-H2085	0.858	0.811	0.572	0.329	0.676	0.819	0.474	0.365	0.516	0.415	0.416	0.438	0.887	0.888	0.876	0.724	0.511	0.584	0.513	0.514
NCI-H2023	0.838	0.804	0.578	0.183	0.407	0.366	0.208	0.227	0.231	0.197	0.206	0.191	0.614	0.686	0.481	0.387	0.247	0.225	0.243	0.211
HOP-62	1.05	1.16	1.05	1.03	0.808	0.808	0.74	0.828	0.563	1.11	0.728	0.48	1.04	0.945	0.903	1.03	0.202	0.227	0.237	0.255
